The source of these data is patent publication US20260158177A1, “COMPOUNDS SPECIFIC TO GRANZYME B AND USES THEREOF” (CYTOSITE BIOPHARMA INC., priority 2021, published 2026).

Numbered stars: 1 amine (or outer) side, 2 acyl side, 3 side chain; on linkers, the order of the positions; unused ones are H or OH. Square brackets hold non-standard residues; d marks the D form. Peptide text beside a SMILES is read from it. * marks the point of attachment. X2 = O=C1CN2CCN(CCN(CC3CCN(CC(=O)*)CC3)CC2)CC(=O)[O][Al]([F])[O]1; NOTA(AlF) = O=C1CN2CCN(CCN(CC(=O)*)CC2)CC(=O)[O][Al]([F])[O]1; Haic = O=C1[C@@H](N[*:1])CCc2cccc3c2N1[C@H](C(=O)[*:2])C3; NH(5-HO-2-oxo-oxolan-4-yl) = O=C1CC(N*)C(O)O1; X1 = O=C(CN1CCN([*:1])CC1)[*:2]

For series [1], the target named is T1, granzyme B (Human lymphocytes) (Homo sapiens, UniProt P10144).
T1 construct: Matrigel Mouse Model of Active and Pro-Form Granzyme B; purchased Enzo Life Sciences; host or cells: human lymphocytes
Put plainly: In vivo PET/CT imaging of ^18F-granzyme B tracers in a Matrigel mouse model of active and pro-form granzyme B. The note with it: female nude athymic mice with granzyme B/Matrigel implants, iv ^18F-radiotracer, PET 75-minutes post-injection. As for the experimental part:
Female nude athymic (5-6 weeks, 15-30 g) mice were purchased from Jackson Laboratories. Both granzyme B (Human lymphocytes, Enzo Life Sciences) and inactivated human pro-form granzyme B (R&D Systems) were also commercially purchased. […] Each granzyme B enzyme was then brought up to a final concentration of 0.05 μg/ul using phosphate buffered saline (GE, Hyclone). Matrigel (65 μl, Corning) was mixed with 15 μl of 0.75 μg of each granzyme B enzyme (granzyme B and pro-form granzyme B) within each Eppendorf tube. The mice were then anesthetized with 2.5-3% isoflurane mixed with oxygen. Approximately 60-80 μl of granzyme B/Matrigel or the pro-form granzyme B/Matrigel were then injected using a 28-gauge X 0.5-inch insulin syringe (Terumo) to form implants on the right and left shoulder flanks of the mice. Approximately five minutes later, the mice were administered the ^18F-radiotracer via a bolus intravenous injection (approximately 150 μCi in a total volume of 100 ul saline plus an additional ˜25 ul saline to flush the catheter line). After the radiotracer injection, the catheter was removed and measured for any remaining residual radioactivity. The mice were then placed back in their cage for recovery. A nanoScan® PET/CT (Mediso, Hungary) was used for micro-PET/CT imaging in which 15-minute static PET scans were conducted 75-minutes post-injection of the radiotracer. Tera-Tomo™ 3D PET iterative reconstruction along with scatter correction were then conducted post-acquisition. A short high-resolution computed tomography (CT) scan was also performed immediately after to allow for anatomical registration. PET signal in the granzyme B implants were quantified by manually drawing regions of interest (ROIs) over the Matrigel implants based on the fused PET/CT images and the corresponding activity values were determined with VivoQuant (Invicro, Massachusetts). All values were represented as % injected dose per gram (% ID/g). Target to background ratios (TBR's) were then calculated by dividing the granzyme B % ID/g value by the pro-form granzyme B % ID/g value. PET imaging timepoints and granzyme B concentrations used in these experiments were determined in previous studies (data not shown).

A short description of series [2]: Radioactive metabolite screening in male CD-1 mouse urine by radiometric HPLC. Type of series: in vivo, male CD-1 mice. The settings on record: for 60 minutes (% parent in urine): male CD-1 mouse urine, 60 minutes post tail vein injection, n=3; for radiometabolites in urine: mice, urine at 60 min post dose. As to the method: Radioactive metabolite screening studies were performed by injection of [18F] granzyme B tracers in male CD-1 mice followed by analysis of urine samples at 60 minutes by radiometric HPLC.
Briefly, male CD-1 mice were anesthetized prior to dosing with approximately 250 μCi [^18F] granzyme B tracer via tail vein injection (n=3 mice). Urine samples were collected at the 60 minutes post-injection following anesthesia and cervical dislocation. Samples were diluted 100-fold in water prior to injection by HPLC.
Diluted samples were then analyzed on an Agilent 1290 series UPLC UV coupled with a BGO coincidence detector. The HPLC method utilized either 1) Phenomenex Kinetex EVO C18 (150×2.1 mm, 1.7 micron); 100 μL injection volume; flow-rate: 0.5 mL/min; solvent for A: 0.1% formic acid in water; solvent for B: 100% acetonitrile; gradient: initial hold at 5% B hold for 1 min, 5% to 40% in 7 min, hold 40% B for 2 min, increase from 40% to 95% B in 1 min, hold 95% B for 2 min, and then return to 5% B to reequilibrate, or 2) Phenomenex Monolithic C18 (100×4.6 mm); 100 μL injection volume; flow-rate: 1.2 mL/min; solvent for A: 20 mM ammonium acetate in water; solvent for B: 100% methanol; gradient: same as above.

T1 sequence (P10144 21-247): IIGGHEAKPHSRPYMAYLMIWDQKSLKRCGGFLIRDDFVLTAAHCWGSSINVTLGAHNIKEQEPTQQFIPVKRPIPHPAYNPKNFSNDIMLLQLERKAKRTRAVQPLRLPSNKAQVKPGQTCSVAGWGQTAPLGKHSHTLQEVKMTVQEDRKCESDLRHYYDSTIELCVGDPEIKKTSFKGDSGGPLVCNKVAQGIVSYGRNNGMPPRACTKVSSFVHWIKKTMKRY

Take `CC[C@H](C)[C@H](NC(=O)CNC(=O)CNC(=O)[C@H](CCC(=O)O)NC(=O)CN1CCC(CN2CCN3CCN(CC2)CC(=O)[O][Al]([F])[O]C(=O)C3)CC1)C(=O)N[C@H]1CCc2cccc3c2N(C1=O)[C@H](C(=O)NC1CC(=O)OC1O)C3` (stereo partly shown) [18F-2-Al] (X2-EGGI[Haic]-{NH(5-HO-2-oxo-oxolan-4-yl)}): the “in vivo imaging activity” value in series [1] is on record as “good imaging activity”.
As for `CC[C@H](C)[C@H](NC(=O)CCNC(=O)CCNC(=O)CN(CC(=O)O)C(=O)CN1CCC(CN2CCN3CCN(CC2)CC(=O)[O][Al]([F])[O]C(=O)C3)CC1)C(=O)N[C@H]1CCc2cccc3c2N(C1=O)[C@H](C(=O)NC1CC(=O)OC1O)C3` (stereo partly shown) [18F-5-Al], the “60 minutes (% parent in urine)” value in series [2] is recorded as 100%.
Still for that read-out and setting: the result for `CC[C@H](C)[C@H](NC(=O)CCNC(=O)CC[C@H](NC(=O)CN1CCC(CN2CCN3CCN(CC2)CC(=O)[O][Al]([F])[O]C(=O)C3)CC1)C(=O)O)C(=O)N[C@H]1CCc2cccc3c2N(C1=O)[C@H](C(=O)NC1CC(=O)OC1O)C3` (stereo partly shown) [18F-6-Al] reads 66.3%.
As for `CC[C@H](C)[C@H](NC(=O)CNC(=O)CNC(=O)[C@H](CCC(=O)O)NC(=O)CN1CCN(C(=O)CN2CCN3CCN(CC2)CC(=O)[O][Al]([F])[O]C(=O)C3)CC1)C(=O)N[C@H]1CCc2cccc3c2N(C1=O)[C@H](C(=O)NC1CC(=O)OC1O)C3` (stereo partly shown) [18F-8-Al] ({NOTA(AlF)}-[X1]EGGI[Haic]-{NH(5-HO-2-oxo-oxolan-4-yl)}), in series [1], the “in vivo imaging activity” value is “good imaging activity”.
With `CC[C@H](C)[C@H](NC(=O)CCNC(=O)CCNC(=O)[C@@H](CCC(=O)O)NC(=O)CN1CCC(CN2CCN3CCN(CC2)CC(=O)[O][Al]([F])[O]C(=O)C3)CC1)C(=O)N[C@H]1CCc2cccc3c2N(C1=O)[C@H](C(=O)NC1CC(=O)OC1O)C3` (stereo partly shown) [Compound ^18F-1-Al], in series [2], the “60 minutes (% parent in urine)” value is listed as 100% and the radiometabolites in urine entry is reported as “no radiometabolites were observed”. In addition, the “in vivo imaging activity” value in series [1] is “good imaging activity”.
On to `CC[C@H](C)[C@H](NC(=O)CCNC(=O)CN(CC(=O)O)C(=O)CCNC(=O)CN1CCC(CN2CCN3CCN(CC2)CC(=O)[O][Al]([F])[O]C(=O)C3)CC1)C(=O)N[C@H]1CCc2cccc3c2N(C1=O)[C@H](C(=O)NC1CC(=O)OC1O)C3` (stereo partly shown) [Compound ^18F-3-Al], for which, in series [2], the “60 minutes (% parent in urine)” value was 100% and the radiometabolites in urine entry is “no radiometabolites were observed”. In addition, the “in vivo imaging activity” value in series [1] is listed as “good imaging activity”.
In the case of `CC[C@H](C)[C@H](NC(=O)COCCNC(=O)[C@@H](CCC(=O)O)NC(=O)[C@@H](CCC(=O)O)NC(=O)CN1CCC(CN2CCN3CCN(CC2)CC(=O)[O][Al]([F])[O]C(=O)C3)CC1)C(=O)N[C@H]1CCc2cccc3c2N(C1=O)[C@H](C(=O)NC1CC(=O)OC1O)C3` (stereo partly shown) [Compound ^18F-4-Al], in series [2], the “60 minutes (% parent in urine)” value stood at 100% and the radiometabolites in urine result is recorded as “no radiometabolites were observed”. Further, the “in vivo imaging activity” value in series [1] is listed as “good imaging activity”.
With `CC[C@H](C)[C@H](NC(=O)COCCNC(=O)[C@@H](CCC(=O)O)NC(=O)[C@@H](CCC(=O)O)NC(=O)CN1CCN(C(=O)CN2CCN3CCN(CC2)CC(=O)[O][Al]([F])[O]C(=O)C3)CC1)C(=O)N[C@H]1CCc2cccc3c2N(C1=O)[C@H](C(=O)NC1CC(=O)OC1O)C3` (stereo partly shown) [Compound ^18F-10-Al], in series [1], the “in vivo imaging activity” value was “good imaging activity”.
Take `CC[C@H](C)[C@H](NC(=O)CCNC(=O)CCNC(=O)[C@@H](CCC(=O)O)NC(=O)CN1CCN(C(=O)CN2CCN3CCN(CC2)CC(=O)[O][Al]([F])[O]C(=O)C3)CC1)C(=O)N[C@H]1CCc2cccc3c2N(C1=O)[C@H](C(=O)NC1CC(=O)OC1O)C3` (stereo partly shown) [Compound ^18F-12-Al]: the “in vivo imaging activity” value in series [1] is reported as “good imaging activity”.
Take `CC[C@H](C)[C@H](NC(=O)CCNC(=O)CCNC(=O)CN(CC(=O)O)C(=O)CN1CCN(C(=O)CN2CCN3CCN(CC2)CC(=O)[O][Al]([F])[O]C(=O)C3)CC1)C(=O)N[C@H]1CCc2cccc3c2N(C1=O)[C@H](C(=O)NC1CC(=O)OC1O)C3` (stereo partly shown) [Compound ^18F-13-Al]: the “in vivo imaging activity” value in series [1] was “good imaging activity”.
